pIC50: −log10 of the molar value.
Assays:
[1] = molecular target: T1, WRN [UniPro: Q14191 (WRN_HUMAN), N500-C946] (Homo sapiens (Human), UniProt Q14191); experiment: WRN unwinding assay (FORKF DNA, fluorescence); format: biochemical; details: Table 14
[2] = molecular target: T1, WRN [UniPro: Q14191 (WRN_HUMAN), N500-C946]; experiment: WRN ATPase assay (ADP-Glo); format: biochemical; details: WRN enzymatic activity assay

T1 sequence (Q14191 500-946): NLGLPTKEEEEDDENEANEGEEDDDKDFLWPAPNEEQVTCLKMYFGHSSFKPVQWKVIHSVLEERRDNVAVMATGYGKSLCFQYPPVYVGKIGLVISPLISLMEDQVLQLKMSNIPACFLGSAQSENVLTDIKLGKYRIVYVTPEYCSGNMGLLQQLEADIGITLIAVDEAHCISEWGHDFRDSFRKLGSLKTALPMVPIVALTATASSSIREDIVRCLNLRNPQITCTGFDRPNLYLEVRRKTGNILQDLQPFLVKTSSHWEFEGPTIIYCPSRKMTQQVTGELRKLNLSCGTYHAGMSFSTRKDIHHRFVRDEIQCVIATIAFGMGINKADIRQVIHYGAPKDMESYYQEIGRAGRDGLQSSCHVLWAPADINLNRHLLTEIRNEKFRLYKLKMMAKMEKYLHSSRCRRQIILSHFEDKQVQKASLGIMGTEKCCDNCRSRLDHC

| pIC50 [1] | pIC50 [2] | SMILES |
| --- | --- | --- |
| > 7.00 | 6.00 to 7.00 | CCc1c(N2CCN(C(=O)C(=O)N(C)C)CC2)c(=O)n2nc(C3=CCOCC3)nc2n1CC(=O)Nc1ccc(C(F)(F)F)cc1Cl [Example 326, 2-(4-(4-(2-((2-Chloro-4-(trifluoromethyl)phenyl)amino)-2-oxoethyl)-2-(3,6-dihydro-2H-pyran-4-yl)-5-ethyl-7-oxo-4,7-dihydro-[1,2,4]triazolo[1,5-a]pyrimidin-6-yl)piperazin-1-yl)-N,N-dimethyl-2-oxoacetamide] |
| > 7.00 | > 7.00 | CCc1c(N2CCN(C(=O)CNC(=O)c3nc(C)cs3)CC2)c(=O)n2nc(C3=CCOCC3)nc2n1CC(=O)Nc1ccc(C(F)(F)F)cc1Cl [Example 346, N-(2-(4-(4-(2-((2-Chloro-4-(trifluoromethyl)phenyl)amino)-2-oxoethyl)-2-(3,6-dihydro-2H-pyran-4-yl)-5-ethyl-7-oxo-4,7-dihydro-[1,2,4]triazolo[1,5-a]pyrimidin-6-yl)piperazin-1-yl)-2-oxoethyl)-4-methylthiazole-2-carboxamide] |
| > 7.00 | 6.00 to 7.00 | CCc1c(N2CCN(C(=O)C(=O)Nc3nccs3)CC2)c(=O)n2nc(N3Cc4ccncc4C3)nc2n1CC(=O)Nc1ccc(C(F)(F)F)cc1Cl [Example 259, 2-(4-(4-(2-((2-Chloro-4-(trifluoromethyl)phenyl)amino)-2-oxoethyl)-2-(1,3-dihydro-2H-pyrrolo[3,4-c]pyridin-2-yl)-5-ethyl-7-oxo-4,7-dihydro-[1,2,4]triazolo[1,5-a]pyrimidin-6-yl)piperazin-1-yl)-2-oxo-N-(thiazol-2-yl)acetamide] |
| > 7.00 | > 7.00 | CCc1c(N2CCN(C(=O)C(=O)Nc3nncs3)CC2)c(=O)n2nc(C3=CCOCC3)nc2n1CC(=O)Nc1ccc(C(F)(F)F)cc1F [Example 342, 2-(4-(2-(3,6-Dihydro-2H-pyran-4-yl)-5-ethyl-4-(2-((2-fluoro-4-(trifluoromethyl)phenyl)amino)-2-oxoethyl)-7-oxo-4,7-dihydro-[1,2,4]triazolo[1,5-a]pyrimidin-6-yl)piperazin-1-yl)-2-oxo-N-(1,3,4-thiadiazol-2-yl)acetamide] |
| > 7.00 | 6.00 to 7.00 | CCc1c(N2CCN(C(=O)CNC(=O)[C@H]3CCCO3)CC2)c(=O)n2nc(C3=CCOCC3)nc2n1CC(=O)Nc1ccc(C(F)(F)F)cc1Cl [Example 321, (R)—N-(2-(4-(4-(2-((2-Chloro-4-(trifluoromethyl)phenyl)amino)-2-oxoethyl)-2-(3,6-dihydro-2H-pyran-4-yl)-5-ethyl-7-oxo-4,7-dihydro-[1,2,4]triazolo[1,5-a]pyrimidin-6-yl)piperazin-1-yl)-2-oxoethyl)tetrahydrofuran-2-carboxamide] |
| > 7.00 | > 7.00 | CCc1c(N2CCN(C(=O)c3nc4ccsc4cc3O)CC2)c(=O)n2nc(C3=CCOCC3)nc2n1CC(=O)Nc1ccc(C(F)(F)F)cc1Cl [Example 305, N-(2-Chloro-4-(trifluoromethyl)phenyl)-2-(2-(3,6-dihydro-2H-pyran-4-yl)-5-ethyl-6-(4-(6-hydroxythieno[3,2-b]pyridine-5-carbonyl)piperazin-1-yl)-7-oxo-[1,2,4]triazolo[1,5-a]pyrimidin-4(7H)-yl)acetamide] |
| 6.00 to 7.00 | 6.00 to 7.00 | CCc1c(N2CCN(C(=O)CNc3ncccn3)CC2)c(=O)n2nc(C3=CCOCC3)nc2n1CC(=O)Nc1ccc(C(F)(F)F)cc1Cl [Example 207, N-(2-Chloro-4-(trifluoromethyl)phenyl)-2-(2-(3,6-dihydro-2H-pyran-4-yl)-5-ethyl-7-oxo-6-(4-(pyrimidin-2-ylglycyl)piperazin-1-yl)-[1,2,4]triazolo[1,5-a]pyrimidin-4(7H)-yl)acetamide] |
| > 7.00 | > 7.00 | CCc1c(N2CCN(C(=O)C(=O)Nc3cncs3)CC2)c(=O)n2nc(C3=CCOCC3)nc2n1CC(=O)Nc1ccc(C(F)(F)F)cc1F [Example 349, 2-(4-(2-(3,6-Dihydro-2H-pyran-4-yl)-5-ethyl-4-(2-((2-fluoro-4-(trifluoromethyl)phenyl)amino)-2-oxoethyl)-7-oxo-4,7-dihydro-[1,2,4]triazolo[1,5-a]pyrimidin-6-yl)piperazin-1-yl)-2-oxo-N-(thiazol-5-yl)acetamide] |
| > 7.00 | 6.00 to 7.00 | CCc1c(N2CCN(C(=O)CNC(=O)c3cn(C)[nH]c3=O)CC2)c(=O)n2nc(C3=CCOCC3)nc2n1CC(=O)Nc1ccc(C(F)(F)F)cc1Cl [Example 283, N-(2-(4-(4-(2-((2-Chloro-4-(trifluoromethyl)phenyl)amino)-2-oxoethyl)-2-(3,6-dihydro-2H-pyran-4-yl)-5-ethyl-7-oxo-4,7-dihydro-[1,2,4]triazolo[1,5-a]pyrimidin-6-yl)piperazin-1-yl)-2-oxoethyl)-1-methyl-3-oxo-2,3-dihydro-1H-pyrazole-4-carboxamide] |
| > 7.00 | > 7.00 | CCc1c(N2CCN(C(=O)CNC(=O)c3ccccc3)CC2)c(=O)n2nc(N3CCOCC3)nc2n1CC(=O)Nc1ccc(C(F)(F)F)cc1Cl [Example 231, N-(2-(4-(4-(2-((2-Chloro-4-(trifluoromethyl)phenyl)amino)-2-oxoethyl)-5-ethyl-2-morpholino-7-oxo-4,7-dihydro-[1,2,4]triazolo[1,5-a]pyrimidin-6-yl)piperazin-1-yl)-2-oxoethyl)benzamide] |
| 6.00 to 7.00 | 6.00 to 7.00 | CCc1c(N2CCN(C(=O)c3nnc(C)[nH]3)CC2)c(=O)n2nc(C3=CCOCC3)nc2n1CC(=O)Nc1ccc(C(F)(F)F)cc1F [Example 312, 2-(2-(3,6-Dihydro-2H-pyran-4-yl)-5-ethyl-6-(4-(5-methyl-4H-1,2,4-triazole-3-carbonyl)piperazin-1-yl)-7-oxo-[1,2,4]triazolo[1,5-a]pyrimidin-4(7H)-yl)-N-(2-fluoro-4-(trifluoromethyl)phenyl)acetamide] |
| > 7.00 | > 7.00 | [2H]C([2H])(NC(=O)c1ccccc1F)C(=O)N1CCN(c2c(CC)n(CC(=O)Nc3ccc(C(F)(F)F)cc3Cl)c3nc(N4CCOCC4)nn3c2=O)CC1 [Example 138, N-(2-(4-(4-(2-((2-Chloro-4-(trifluoromethyl)phenyl)amino)-2-oxoethyl)-5-ethyl-2-morpholino-7-oxo-4,7-dihydro-[1,2,4]triazolo[1,5-a]pyrimidin-6-yl)piperazin-1-yl)-2-oxoethyl-1,1-d2)-2-fluorobenzamide] |
| > 7.00 | > 7.00 | CCc1c(N2CCN(C(=O)c3n[nH]c(=O)[nH]c3=O)CC2)c(=O)n2nc(C3=CCOCC3)nc2n1CC(=O)Nc1ccc(C(F)(F)F)cc1Cl [Example 22, N-(2-Chloro-4-(trifluoromethyl)phenyl)-2-(2-(3,6-dihydro-2H-pyran-4-yl)-6-(4-(3,5-dioxo-2,3,4,5-tetrahydro-1,2,4-triazine-6-carbonyl)piperazin-1-yl)-5-ethyl-7-oxo-[1,2,4]triazolo[1,5-a]pyrimidin-4(7H)-yl)acetamide] |
| > 7.00 | > 7.00 | CCc1c(N2CCN(C(=O)C(=O)Nc3nccs3)CC2)c(=O)n2nc(N3CCn4cncc4C3)nc2n1CC(=O)Nc1ccc(C(F)(F)F)cc1F [Example 261, 2-(4-(2-(5,6-Dihydroimidazo[1,5-a]pyrazin-7 (8H)-yl)-5-ethyl-4-(2-((2-fluoro-4-(trifluoromethyl)phenyl)amino)-2-oxoethyl)-7-oxo-4,7-dihydro-[1,2,4]triazolo[1,5-a]pyrimidin-6-yl)piperazin-1-yl)-2-oxo-N-(thiazol-2-yl)acetamide] |

Reference: patent US20260015358A1, “BICYCLIC DERIVATIVES, COMPOSITIONS AND USES THEREOF” (Danatlas Pharmaceuticals Co., Ltd., priority 2023, published 2026)
